Legend:
[1] = target: T1, full-length recombinant rat vitamin D receptor (Rattus norvegicus, UniProt P13053); test: Vitamin D receptor competitive binding with [3H]-1,25-(OH)2-D3; conditions: compared with native hormone 1,25(OH)2D3; FIG. 1
T1 construct: Full-length recombinant rat receptor was expressed in E. coli BL21(DE3) Codon Plus RIL cells; histidine tag (C); made in house; host or cells: E. coli BL21(DE3) Codon Plus RIL
T1 sequence (P13053 1-423): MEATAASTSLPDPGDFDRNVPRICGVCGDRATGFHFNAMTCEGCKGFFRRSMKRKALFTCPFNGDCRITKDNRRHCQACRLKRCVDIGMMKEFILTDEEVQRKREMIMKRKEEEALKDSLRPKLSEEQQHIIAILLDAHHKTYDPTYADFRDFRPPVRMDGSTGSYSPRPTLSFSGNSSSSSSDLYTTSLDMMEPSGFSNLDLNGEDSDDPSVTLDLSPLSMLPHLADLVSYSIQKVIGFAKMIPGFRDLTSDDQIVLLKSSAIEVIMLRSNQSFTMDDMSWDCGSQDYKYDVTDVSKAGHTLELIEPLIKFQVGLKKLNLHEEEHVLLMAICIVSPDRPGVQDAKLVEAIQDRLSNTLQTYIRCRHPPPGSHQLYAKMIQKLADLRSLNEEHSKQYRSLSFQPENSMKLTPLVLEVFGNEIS
Excerpt: FIG. 1 is a graph comparing the relative activity of (20S/24R) 2-MD2 and 1,25(OH)2D3 to compete for binding with [^3H]-1,25-(OH)2-D3 to the full-length recombinant rat vitamin D receptor.
Full-length recombinant rat receptor was expressed in E. coli BL21(DE3) Codon Plus RIL cells and purified to homogeneity using two different column chromatography systems. The first system was a nickel affinity resin that utilizes the C-terminal histidine tag on this protein. The protein that was eluted from this resin was further purified using ion exchange chromatography (S-Sepharose Fast Flow). Aliquots of the purified protein were quick frozen in liquid nitrogen and stored at −80° C. until use. For use in binding assays, the protein was diluted in TEDK50 (50 mM Tris, 1.5 mM EDTA, pH 7.4, 5 mM DTT, 150 mM KCl) with 0.1% Chaps detergent. […]
Unlabeled ligands were dissolved in ethanol and the concentrations determined using UV spectrophotometry (1,25(OH)2D3: molar extinction coefficient=18,200 and λmax=265 nm; Analogs: molar extinction coefficient=42,000 and λmax=252 nm). […]
Radiolabeled and unlabeled ligands were added to 100 mcl of the diluted protein at a final ethanol concentration of ≦10%, mixed and incubated overnight on ice to reach binding equilibrium. […] Total binding was determined from the tubes containing only radiolabeled ligand.

[2] = test system: Human promyelocytic leukemia (HL60) cells; test: HL-60 cell differentiation (nitro blue tetrazolium reduction); assay type: cell-based; conditions: compared with 1,25-(OH)2D3; FIG. 2
Procedure: FIG. 2 is a graph comparing the percent HL-60 cell differentiation as a function of the concentration of (20S/24R) 2-MD2 with that of 1,25(OH)2D3.
The study drugs were dissolved in ethanol and the concentrations determined using UV spectrophotometry. Serial dilutions were prepared so that a range of drug concentrations could be tested without changing the final concentration of ethanol (≦0.2%) present in the cell cultures.
Human promyelocytic leukemia (HL60) cells were grown in RPMI-1640 medium containing 10% fetal bovine serum. The cells were incubated at 37° C. in the presence of 5% CO2.
HL60 cells were plated at 1.2×10^5 cells/ml. Eighteen hours after plating, cells in duplicate were treated with drug. Four days later, the cells were harvested and a nitro blue tetrazolium reduction assay was performed (Collins et al., 1979; J. Exp. Med. 149:969-974). The percentage of differentiated cells was determined by counting a total of 200 cells and recording the number that contained intracellular black-blue formazan deposits. Verification of differentiation to monocytic cells was determined by measuring phagocytic activity (data not shown).

[3] = test system: 24-hydroxylase (24Ohase) gene promoter in ROS 17/2.8 (bone) cells; test: In vitro transcription assay (24-hydroxylase promoter luciferase reporter); assay type: cell-based; conditions: compared with 1,25-(OH)2D3; ROS 17/2.8 cells, 24Ohase-luciferase; FIG. 3
Procedure: FIG. 3 is a graph comparing the in vitro transcription activity of (20S/24R) 2-MD2 with that of 1,25(OH)2D3.
Transcription activity was measured in ROS 17/2.8 (bone) cells that were stably transfected with a 24-hydroxylase (24Ohase) gene promoter upstream of a luciferase reporter gene (Arbour et al., 1998). Cells were given a range of doses. Sixteen hours after dosing the cells were harvested and luciferase activities were measured using a luminometer. RLU=relative luciferase units.

[4] = Bone calcium mobilization (serum calcium); assay type: in vivo, Sprague-Dawley rats; conditions: compared with 1,25-(OH)2D3, rats, four consecutive ip doses, FIG. 4
Excerpt: FIG. 4 is a bar graph comparing the bone calcium mobilization activity of (20S/24R) 2-MD2 with that of 1,25(OH)2D3.
(§1) Male, weanling Sprague-Dawley rats were placed on Diet 11 (Suda et al. J. Nutr. 100:1049, 1970) (0.47% Ca) diet+vitamins AEK for one week followed by Diet 11 (0.02% Ca)+AEK for 3 weeks. The rats were then switched to a diet containing 0.47% Ca for one week followed by two weeks on a diet containing 0.02% Ca. Dose administration began during the last week on 0.02% calcium diet. Four consecutive ip doses were given approximately 24 hours apart. Twenty-four hours after the last dose, blood was collected from the severed neck and the concentration of serum calcium determined as a measure of bone calcium mobilization. The first 10 cm of the intestine was also collected for intestinal calcium transport analysis using the everted gut sac method.

[5] = Intestinal calcium transport (everted gut sac method); assay type: in vivo, Sprague-Dawley rats; conditions: compared with 1,25-(OH)2D3, rats, four consecutive ip doses, FIG. 5
Excerpt: FIG. 5 is a bar graph comparing the intestinal calcium transport activity of (20S/24R) 2-MD2 with that of 1,25(OH)2D3.
as §1

## C=C1[C@H](O)CC(=C/C=C2\CCC[C@]3(C)C([C@@H](C)/C=C/[C@@H](C)C(C)(C)O)CC[C@@H]23)C[C@H]1O (stereo in doubt) [2-methylene-19-nor-(20S-24epi)-1α,25-dihydroxyvitamin D2]
[1]
  binding to the vitamin D receptor: almost equal to the native hormone
[2]
  inducing differentiation of HL-60 cells: more activity than 1,25-(OH)2D3
[3]
  causing transcription: more effective than 1,25-(OH)2D3
[4]
  bone calcium mobilizing activity: more bone calcium mobilizing activity than 1,25-(OH)2D3
[5]
  intestinal calcium transport activity: approximately equal to 1,25-(OH)2D3

Source: patent US20060183721A1, “2-Methylene-19-nor-(20S-24epi)-1alpha,25-dihydroxyvitamin D2” (Wisconsin Alumni Research Foundation, priority 2005, published 2006)
